From patent US20260234135A1, “CRYSTALLINE FORMS OR SALTS OF A DEUTERATED COMPOUND” (ALEBUND PHARMACEUTICALS (HONG KONG) LIMITED, priority 2023, published 2026)

Key:
[1] = test system: rat model of hyperlipidemia induced by high cholesterol diet; assay: Rat model of hyperlipidemia induced by high cholesterol diet (serum TG, NEFA); format: in vivo, Sprague-Dawley rats; settings: for Serum NEFA compared with the vehicle group / Serum TG compared with the vehicle group: 0.2 mg/kg and 0.6 mg/kg oral, after 7 days of treatment (Day 8)
From the text: 8.2.1 High cholesterol diet (ASHF4) was used to induce an animal model of hyperlipidemia in the SD rats.
8.2.2 The male SD rats were fed with high cholesterol diet (ASHF4, Dyet, China) for 14 days. On the day before the start of the administration (Day 0), the animals were divided into 5 groups based on body weights and serum indicators and were continually fed with the high-cholesterol diet. The treatment groups were orally dosed with either compound or vehicle while continuing the high-cholesterol diet for a total of 1 week. The animals were weighed daily before the treatment, and the compounds were given at 9:00-9:30 in the morning based on the body weight of the day.
8.2.3 Animal blood was collected, and serum was separated for the analysis of serum lipid indicators on the day before the treatment and at the end of the last day for the experiment.
8.2.4 Serum indicators of triglyceride (TG) and free fatty acid (NEFA) were determined by an automatic blood biochemical analyzer.

[2] = 7-day repeated oral gavage, body weights of ICR mice; format: in vivo; settings: for Weight Gain (g) compared with Day 0: n = 10
From the text: 50 male ICR mice aged 6-8 weeks; source: Laboratory Animal Business Department, Shanghai Institute of Planned Parenthood Research.
After 3 days of acclimatization, ICR mice were grouped according to their body weights. The day of grouping is designated as Day 0. […] The animals were weighed and recorded daily.

[3] = test system: db/db type 2 diabetes model; assay: Oral glucose tolerance test (OGTT) in db/db animals; format: in vivo, db/db mice; settings: for OGTT blood glucose levels at each time point compared with the vehicle group: within 120 minutes, different dosages
Description: At the end of the experiment, oral glucose tolerance tests were carried out on the db/db animals treated by different compounds. […] .

[4] = phase 3 clinical trials; cited from earlier work
[5] = test system: rat model of unilateral ureteral obstruction; assay: Rat model of unilateral ureteral obstruction, renal injury; settings: 0.2 mg/kg oral daily, 14 treatment days
Description: Housing temperature was maintained at 20-26° C. and humidity at 40%-60%. Rats were fed with a standard chow and allowed to access food and water ad libitum.
The formulation was prepared twice a week.
Vehicle or compounds were administrated by orally gavage daily. Unilateral ureteral obstruction was performed on the second day of compound treatment. Animals in model group, reference group and compound group underwent urethral ligation under isoflurane anesthesia one hour after receiving compound administration. A flank incision was cut to expose the left ureter, and a 4-0 surgical suture was used to perform two-point ligation to achieve urethral obstruction. Ureter was cut between the two ligation points. Animals in the control group were subjected to the same surgical treatment except the ligation and cut. After surgery, animals in each group continually received vehicle or compound for 12 more days, for a total of 14 treatment days.
Rats were sacrificed after 14 days' compound treatment. The obstructed kidney was weighed and collected for histology. The tissue samples were fixed with formalin, and then paraffin embedded. The embedded tissue was sectioned and stained with hematoxylin & eosin and Masson trichrome to assess kidney structure and fibrosis.
The multiple comparison was analyzed with the Kruskal-Wallis non-parameter test. […]

[6] = test system: db/db type 2 diabetes model; assay: db/db type 2 diabetes model (body weight, serum TG, random blood glucose); settings: for Serum TG levels compared with the vehicle group / Average daily body weights compared with the vehicle group: Aleglitazar 0.2 mg/kg; for Serum TG levels compared with the vehicle group: Compound 2 at different dosages; for Average daily body weights compared with the vehicle group: Day 10 to Day 15, Compound 2 0.05, 0.2, 1 mg/kg; for Level of lipid, free fatty acid and blood glucose compared with vehicle group: summary, all groups
From the text: 45 Db/db mice were evenly divided into 5 groups before the initiation of treatment based on the body weights, serum triglyceride (TG) levels, and random blood glucose levels.
All animals were weighed daily before each dosing and treated daily for 14 consecutive days.
All the data was imported into an Excel file and presented as Mean±SEM. Graphpad Prism 7.0 software was used for data statistical analysis by One-way or Two-way ANOVA, with P<0.05 as the criterion of significant differences.

[7] = test system: diabetic nephropathy model; assay: Diabetic nephropathy pharmacodynamic model (uninephrectomized db/db mice); format: in vivo, db/db: BLKS male mice
From the text: At the age of 6 weeks, db/db mice were anesthetized with 2.5% […] and subjected to uninephrectomy with removal of right kidney. Buprenorphine was applied after surgery.
11.1.2 Procedure. Two weeks after surgery, db/db mice were randomly assigned into 5 groups. Wild type mice were used for the control animals. […] Compounds were orally administrated once per day for 10 weeks.
At the 5th and 9th week after compound administration, mice were placed in metabolic cages for urine collection. Albumin level was measured for 24 hr albumin excretion calculation. At the 10th week after treatment, the animals were sacrificed for kidney dissection. The kidney was fixed in 10% neutral buffed formalin, then paraffin-embedded for histopathological analysis. Glomerulosclerosis was assessed by evaluating glomerular basement membrane, mesangial expansion, nodular sclerosis and glomerulosclerosis. Severity was graded as follows: 0: normal; 1: Glomerular basement membrane thickening: isolated glomerular basement membrane thickening and only mild, nonspecific changes by light microscopy; 2: Mesangial expansion mild (IIa) or severe (IIb): glomeruli with mild or severe mesangial expansion but without nodular sclerosis or global glomerulosclerosis in more than 50% of glomeruli; 3: Nodular sclerosis: at least one glomerulus with nodular increase in mesangial matrix; 4: Advanced diabetic glomerulosclerosis: more than 50% global glomerulosclerosis with other clinical or pathological evidence that sclerosis is attributable to diabetic nephropathy. Renal tubular injury was scored as follows: 0: no obvious lesions; 1: up to 25% involvement of tubular lesion; 2: lesion in 25% to 50% of renal tubular; 3: 50% to 75% of renal tubular lesion and grade 4: >75% tubular lesion.
Graphpad 8.0 software was used for statistical analysis. The difference between the values were analyzed with one-way ANOVA. The difference between histopathological score was analyzed with Kruskal-Wallis nonparameter test. All values were compared with the group 2.

[8] = Inter-conversion relationship (slurry competition) and form stability of free acid forms; settings: storage at RT for 1 month, XRPD
[9] = Day 8, 0.2 mg/kg oral QDx7 days
[10] = Day 8, 0.6 mg/kg oral QDx7 days
[11] = 0.2 mg/kg oral QDx7 days, Day 1, ICR mice
[12] = 0.2 mg/kg oral QDx7 days, Day 2, ICR mice
[13] = 0.2 mg/kg oral QDx7 days, Day 3, ICR mice
[14] = 0.2 mg/kg oral QDx7 days, Day 4, ICR mice
[15] = 0.2 mg/kg oral QDx7 days, Day 5, ICR mice
[16] = 0.2 mg/kg oral QDx7 days, Day 6, ICR mice
[17] = 0.2 mg/kg oral QDx7 days, Day 7, ICR mice
[18] = 1 mg/kg oral QDx7 days, Day 1, ICR mice
[19] = 1 mg/kg oral QDx7 days, Day 2, ICR mice
[20] = 1 mg/kg oral QDx7 days, Day 3, ICR mice
[21] = 1 mg/kg oral QDx7 days, Day 4, ICR mice
[22] = 1 mg/kg oral QDx7 days, Day 5, ICR mice
[23] = 1 mg/kg oral QDx7 days, Day 6, ICR mice
[24] = 1 mg/kg oral QDx7 days, Day 7, ICR mice
[25] = 0.2 mg/kg (Aleglitazar P<0.001; Compound 2 P<0.01)

CO[C@@H](Cc1ccc(OCCc2nc(-c3ccccc3)oc2C)c2ccsc12)C(=O)O [Aleglitazar, aleglitazar]
Serum NEFA compared with the vehicle group [1]: significantly reduce
Serum TG compared with the vehicle group [1]: significantly reduce
serum TG, significance compared with the first group (vehicle), One-way ANOVA [1, 9]: * (*p < 0.05)
serum TG, significance compared with the first group (vehicle), One-way ANOVA [1, 10]: **** (****p < 0.0001)
Weight Gain (g) compared with Day 0 [2, 11]: 0.48 ± 0.27 g
Weight Gain (g) compared with Day 0 [2, 12]: 1.66 ± 0.39 g
Weight Gain (g) compared with Day 0 [2, 13]: 2.62 ± 0.42 g
Weight Gain (g) compared with Day 0 [2, 14]: 3.50 ± 0.42 g
Weight Gain (g) compared with Day 0 [2, 15]: 3.92 ± 0.4 g
Weight Gain (g) compared with Day 0 [2, 16]: 4.81 ± 0.37 g
Weight Gain (g) compared with Day 0 [2, 17]: 5.39 ± 0.56 g
Weight gain, significance compared with vehicle, One-way ANOVA ([2]; 0.2 mg/kg, Day 4): * (* p < 0.05)
Daily average weight gain compared with the vehicle group ([2]; 0.2 mg/kg, Day 4 and Day 5): significantly higher
Weight gain, significance compared with vehicle, One-way ANOVA ([2]; 0.2 mg/kg, Day 5): * (* p < 0.05)
Weight Gain (g) compared with Day 0 [2, 18]: 0.5 ± 0.2 g
Weight Gain (g) compared with Day 0 [2, 19]: 1.64 ± 0.26 g
Weight Gain (g) compared with Day 0 [2, 20]: 2.61 ± 0.51 g
Weight Gain (g) compared with Day 0 [2, 21]: 3.33 ± 0.54 g
Weight Gain (g) compared with Day 0 [2, 22]: 3.86 ± 0.49 g
Weight Gain (g) compared with Day 0 [2, 23]: 4.98 ± 0.52 g
Weight Gain (g) compared with Day 0 [2, 24]: 5.34 ± 0.50 g
Daily average weight gain compared with the vehicle group ([2]; 1 mg/kg, Day 6): significantly higher
Weight gain, significance compared with vehicle, One-way ANOVA ([2]; 1 mg/kg, Day 6): * (* p < 0.05)
OGTT AUC0-120 min compared with the vehicle group [3, 25]: significantly lower
OGTT blood glucose levels at each time point compared with the vehicle group [3]: significantly reduced
Blood sugar and blood lipid levels [4]: effectively reduce blood sugar and blood lipid levels
Heart failure risk [4]: a certain degree of heart failure risk
Total score of renal focal lesions compared to the model group [5]: did not achieve statistically significant improvement
Serum TG levels compared with the vehicle group ([6]; Day 6 and Day 12): significantly lower
Random blood glucose reduction compared with the vehicle group ([6]; Day 7, 0.2 mg/kg): reached statistical significance
Average daily body weights compared with the vehicle group [6]: significantly higher
Level of lipid, free fatty acid and blood glucose compared with vehicle group [6]: significantly decreased

[2H]C([2H])(Cc1nc(-c2ccccc2)oc1C)Oc1ccc(C[C@H](OC)C(=O)O)c2sccc12 [Compound 2]
Serum NEFA compared with the vehicle group [1]: significantly reduce
Serum TG compared with the vehicle group [1]: significantly reduce
Serum NEFA compared with Aleglitazar ([1]; 0.2 mg/kg, T-test, P<0.05): significantly reduce
Serum TG compared with Aleglitazar ([1]; 0.2 mg/kg, T-test, P<0.05): significantly reduce
serum TG, significance compared with the first group (vehicle), One-way ANOVA [1, 9]: *** (***p < 0.001)
serum TG, significance compared with the first group (vehicle), One-way ANOVA [1, 10]: *** (***p < 0.001)
Weight Gain (g) compared with Day 0 [2, 11]: 0.45 ± 0.28 g
Weight Gain (g) compared with Day 0 [2, 12]: 1.42 ± 0.22 g
Weight Gain (g) compared with Day 0 [2, 13]: 2.56 ± 0.23 g
Weight Gain (g) compared with Day 0 [2, 14]: 2.96 ± 0.23 g
Weight Gain (g) compared with Day 0 [2, 15]: 3.73 ± 0.34 g
Weight Gain (g) compared with Day 0 [2, 16]: 4.66 ± 0.39 g
Weight Gain (g) compared with Day 0 [2, 17]: 5.08 ± 0.42 g
Daily weight gain compared with the vehicle group ([2]; 0.2 mg/kg, throughout the study): no significant difference
Weight Gain (g) compared with Day 0 [2, 18]: 0.4 ± 0.17 g
Weight Gain (g) compared with Day 0 [2, 19]: 1.57 ± 0.26 g
Weight Gain (g) compared with Day 0 [2, 20]: 2.71 ± 0.19 g
Weight Gain (g) compared with Day 0 [2, 21]: 3.61 ± 0.19 g
Weight Gain (g) compared with Day 0 [2, 22]: 3.96 ± 0.29 g
Weight Gain (g) compared with Day 0 [2, 23]: 4.84 ± 0.4 g
Weight Gain (g) compared with Day 0 [2, 24]: 5.44 ± 0.36 g
Weight gain, significance compared with vehicle, One-way ANOVA ([2]; 1 mg/kg, Day 4): ** (**p < 0.01)
Average daily weight gain compared with the vehicle group ([2]; 1 mg/kg, Day 4 and 5): significantly higher
Weight gain, significance compared with vehicle, One-way ANOVA ([2]; 1 mg/kg, Day 5): * (* p < 0.05)
OGTT blood glucose compared with the vehicle group ([3]; 0.05 mg/kg (Group 4), all time points): trend of decrease but did not reach statistical significance
OGTT AUC0-120 min compared with the vehicle group [3, 25]: significantly lower
OGTT AUC0-120 min compared with the vehicle group ([3]; 1 mg/kg, P<0.0001): significantly lower
OGTT AUC0-120 min compared with Aleglitazar ([3]; same dose level (0.2 mg/kg)): higher
OGTT blood glucose levels at each time point compared with the vehicle group [3]: significantly reduced
24-hour urinary albumin ([7]; 5th and 9th weeks after compound administration, 0.1, 0.3, 1 mg/kg oral once per day): significantly decreased
Glomerular damage and glomerular hypertrophy ([7]; 10 weeks treatment): suppressed the glomerular damage and ameliorate the glomerular hypertrophy
Renal tubular injury ([7]; all dosage levels): improved the tubular injury at some extend
Glomerular volume ([7]; high dose (1 mg/kg)): statistically significantly reduced
Glomerulosclerosis histopathological score ([7]; high dose (1 mg/kg)): statistically significantly reduced
Total score of renal focal lesions compared to the model group [5]: significantly improved
Serum TG, rank of effect among groups ([6]; 1 mg/kg (Group 6), Day 6 and Day 12): largest effect
statistical difference (p) of the blood glucose level between treatment group and vehicle group ([6]; 0.2 mpk, Day 0, db/db mice): p > 0.05
Serum TG levels compared with the vehicle group ([6]; Day 6 and Day 12): significantly lower
Random blood glucose reduction compared with the vehicle group ([6]; Day 7, 1 mg/kg): reached statistical significance
Average daily body weights compared with the vehicle group [6]: significantly higher
Random blood glucose lowering compared with the vehicle group ([6]; Day 14, 0.05 mg/kg): did not reach statistical significance
Random blood glucose lowering vs vehicle, compared with Day 7 ([6]; Day 14, 1 mg/kg): more pronounced effect of blood glucose lowering
Effect on lowering blood glucose compared with Aleglitazar ([6]; overall): slightly weaker effect
Level of lipid, free fatty acid and blood glucose compared with vehicle group [6]: significantly decreased

[2H]C([2H])(Cc1nc(-c2ccccc2)oc1C)Oc1ccc(C[C@H](OC)C(=O)O)c2sccc12 [free acid Form D]
Form after storage [8]: converted to free acid Form E
